Results reported in patent US10328143B2, “Hemagglutinin-binding peptide” (priority 2014, dated 2019).

Tested on: influenza virus H5N1-Vac3
Assay type: cell-based

Substance | anti-viral effect | anti-viral effect at low concentration
Cyclo(Ac-Trp-Thr-MeGly-Asp-MePhe-MePhe-Ser-MeSer-His-Tyr-Thr-Val-Pro-Glu-Cys)-amide [iHA-100-R14E] | high anti-viral effect | 
Cyclo(Ac-Trp-Thr-MeGly-Asp-MePhe-MePhe-Ser-MeSer-His-Tyr-Thr-Val-Pro-Ala-Cys)-amide [iHA-100-R14A] | high anti-viral effect | high anti-viral effect even when their concentration is low
Cyclo(Ac-Trp-Thr-MeGly-Asp-MePhe-MePhe-Ser-MeSer-His-Tyr-Thr-Val-Pro-Dap-Cys)-amide [iHA-100-R14Dap] | high anti-viral effect | high anti-viral effect even when their concentration is low
